Some test systems named below: SK-MEL-28 melanoma; HT29 colon; OVCAR-8 ovarian; A498 renal; HCT-15 colon; SF-268 CNS; SR leukemia; MOLT-4 leukemia; MALME-3M melanoma.
Holding throughout (assay): DTP human tumour cell line panel, 48 h

Structures are written as SMILES.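 Cells were grown in 96-well plates and exposed to each compound for 48 hours at five concentrations; endpoints were interpolated linearly between bracketing concentrations, or set to the highest concentration if not reached. GI50 marks 50% less growth. TGI denotes the concentration required for complete inhibition of growth.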

Broadly, the TGI is the concentration at which net growth stops. Low readings indicate greater sensitivity of the cells, high ones lower sensitivity of the cells. Regarding `Cc1ccc([N+](=O)[O-])cc1NC(=O)C(=O)Cc1occc(=O)c1O`, the TGI in the assay with SK-MEL-28 melanoma, in the assay with HT29 colon, in the assay on OVCAR-8 ovarian, in the assay with A498 renal, with HCT-15 colon and in the assay with SF-268 CNS was more than 100 µM throughout. This compound registered a TGI with SR leukemia of more than 100 µM.

As for `O=C(/C=C\c1cccc2ccccc12)c1cccs1`, the TGI in the assay with SK-MEL-28 melanoma was 28 µM; in the assay on MOLT-4 leukemia, 35.8 µM; in the assay on HT29 colon, 17.4 µM; in the assay with OVCAR-8 ovarian, 24.9 µM; in the assay on A498 renal, 35.6 µM; in the assay with HCT-15 colon, 13.8 µM. Further, the figures for the TGI with SF-268 CNS and in the assay with MALME-3M melanoma were 26.1 µM and 25.1 µM, respectively.

As for `NC(=O)N/N=C(\C(=O)C(=O)Nc1ccc(Cl)c(C(F)(F)F)c1)c1nc2ccc(C(=O)c3ccccc3)cc2[nH]c1=O`, the TGI in the assay on SK-MEL-28 melanoma, with MOLT-4 leukemia, in the assay on HT29 colon, with OVCAR-8 ovarian, in the assay on A498 renal and in the assay with HCT-15 colon was more than 100 µM in each case. The TGI with SF-268 CNS, in the assay on MALME-3M melanoma and in the assay with SR leukemia was more than 100 µM each time.

For `COc1cc(/C=C2\[C@H]3c4c(c(OC)c(C)c(OC)c4OC)C[C@@H](C(=O)N2Cc2ccccc2)N3C(=O)OC(C)C)c(OC)c(C)c1OC`, the TGI with SK-MEL-28 melanoma, with MOLT-4 leukemia, in the assay with HT29 colon, in the assay on OVCAR-8 ovarian, in the assay with A498 renal and in the assay with SF-268 CNS was more than 100 µM each time. Also, the TGI with MALME-3M melanoma and in the assay on SR leukemia was more than 100 µM in each case.

As for `O=C(NCc1ccccc1)c1cc2cc(O)c(O)cc2cn1`, the TGI in the assay on SK-MEL-28 melanoma is more than 100 µM; in the assay with HT29 colon it was 70.4 µM; with OVCAR-8 ovarian, 89.7 µM; in the assay with A498 renal, more than 100 µM; in the assay on HCT-15 colon it was more than 100 µM; in the assay on SF-268 CNS it was 75.1 µM. Further, the TGI in the assay on MALME-3M melanoma and in the assay with SR leukemia was more than 100 µM in each case.

For the compound `CCOc1ccccc1N=Nc1c(-c2ccccc2)nn(C(=O)CC(=O)Nc2cccc(Cl)c2)c1-c1ccccc1`, the TGI in the assay on SK-MEL-28 melanoma, with MOLT-4 leukemia, in the assay on HT29 colon, with OVCAR-8 ovarian, in the assay on SF-268 CNS and with MALME-3M melanoma was more than 100 µM each time. This compound had a TGI in the assay with SR leukemia of more than 100 µM.

On to `COc1cc2nc(Sc3c([N+](=O)[O-])ncn3C)[nH]c2cc1OC`, for which the TGI in the assay with SK-MEL-28 melanoma is more than 100 µM; in the assay on MOLT-4 leukemia, 44.4 µM; with HT29 colon, more than 100 µM; in the assay with OVCAR-8 ovarian, 58 µM; with A498 renal, more than 100 µM; with HCT-15 colon, more than 100 µM. Besides, the figures for the TGI with SF-268 CNS, in the assay with MALME-3M melanoma and in the assay with SR leukemia were 69.9 µM, more than 100 µM and 60.2 µM, respectively.

For the compound `COc1ccc(C(c2ccc(C(C)C)cc(=O)c2O)c2ccc3cccnc3c2O)cc1` (stereo not drawn), the TGI with MOLT-4 leukemia was more than 100 µM; in the assay with HT29 colon, 20.2 µM; in the assay on OVCAR-8 ovarian, 12.7 µM; with HCT-15 colon, 14.5 µM; in the assay on SF-268 CNS, 10.4 µM; with MALME-3M melanoma, 17.5 µM. In the assay on SR leukemia, the TGI was 15.9 µM.

As for `CCOC(=O)C(Cc1ccccc1)NC(=O)c1ccc(N=NN(C)C)cc1` (stereo not drawn), the TGI in the assay on SK-MEL-28 melanoma, in the assay with MOLT-4 leukemia, with HT29 colon, in the assay with OVCAR-8 ovarian, with A498 renal and in the assay on HCT-15 colon was more than 100 µM throughout. The TGI in the assay with SF-268 CNS, in the assay on MALME-3M melanoma and with SR leukemia was more than 100 µM each time.

In the case of `N/C(=N\N=C\c1cccs1)NO`, the TGI with SK-MEL-28 melanoma, in the assay with HT29 colon, in the assay on OVCAR-8 ovarian, in the assay with A498 renal, with HCT-15 colon and with SF-268 CNS was more than 100 µM throughout. Further, the TGI in the assay with MALME-3M melanoma and in the assay on SR leukemia was more than 100 µM throughout.

As to `COC(=O)N/N=C(/CCN1CCCC1)CC(c1ccccc1)c1c(O)c2ccccc2oc1=O` (stereo not drawn), the TGI with SK-MEL-28 melanoma, in the assay on MOLT-4 leukemia, with HT29 colon, with OVCAR-8 ovarian, with A498 renal and in the assay with HCT-15 colon was more than 100 µM throughout. For the same compound, the TGI with SF-268 CNS, with MALME-3M melanoma and with SR leukemia was more than 100 µM throughout.

With `CCC(C)OC(=O)C1C2CCC(O2)C1C(=O)O` (stereo not drawn), the TGI with SK-MEL-28 melanoma was more than 100 µM; in the assay on MOLT-4 leukemia it was more than 100 µM; in the assay with HT29 colon, more than 66.2 µM; in the assay on OVCAR-8 ovarian it was more than 100 µM; with A498 renal, more than 100 µM; in the assay with HCT-15 colon it was more than 56 µM. In addition, the TGI in the assay on SF-268 CNS was more than 80.8 µM; in the assay with MALME-3M melanoma, more than 100 µM; with SR leukemia, 40.3 µM.

`CC(=O)NC(CCCCNC(=O)N(CCCl)N=O)C(=O)NCc1ccccc1` (stereo not drawn): the TGI in the assay with SK-MEL-28 melanoma, in the assay on MOLT-4 leukemia, with HT29 colon, in the assay on OVCAR-8 ovarian, with HCT-15 colon and with SF-268 CNS was more than 100 µM throughout. Also, the TGI in the assay on MALME-3M melanoma and in the assay with SR leukemia was more than 100 µM in each case.

For `O=C(O)C(Cc1c[nH]c2ccccc12)N=Cc1nc(-c2ccccc2)oc1O` (stereo not drawn), the TGI in the assay on SK-MEL-28 melanoma, in the assay on MOLT-4 leukemia, in the assay with HT29 colon, in the assay with OVCAR-8 ovarian, in the assay with A498 renal and in the assay on HCT-15 colon was more than 100 µM throughout. In addition, the TGI in the assay on SF-268 CNS, in the assay on MALME-3M melanoma and with SR leukemia was more than 100 µM throughout.

The GI50 is the concentration at which growth is held to half of that of the control. On to `CN(C)C(=O)/N=c1\ss/c(=N\C(=S)N(C)C)n1-c1ccccc1`, for which the TGI in the assay on SK-MEL-28 melanoma was more than 56.6 µM; with MOLT-4 leukemia, more than 82.1 µM; in the assay with OVCAR-8 ovarian it was more than 61.1 µM; with A498 renal, more than 100 µM; in the assay on HCT-15 colon, more than 100 µM; with SF-268 CNS, more than 100 µM. The TGI with MALME-3M melanoma and in the assay on SR leukemia was more than 100 µM in each case. The GI50 was 0.158 µM in the assay with MOLT-4 leukemia and 0.389 µM in the assay with SF-268 CNS.

In the case of `COC(=O)C(=O)C(C(=O)C(=O)Nc1ccc(Cl)cc1C)c1nc2ccc(C(=O)c3ccccc3)cc2[nH]c1=O` (stereo not drawn), the TGI in the assay with MOLT-4 leukemia, with HT29 colon, with OVCAR-8 ovarian, with A498 renal, in the assay on HCT-15 colon and with SF-268 CNS was more than 100 µM throughout. For the same compound, the TGI in the assay with MALME-3M melanoma and in the assay with SR leukemia was more than 100 µM each time.

For the origin of these results see PubChem BioAssay (NCI).
